pIC50, pKi: −log10 of the molar value. Marks after values point to notes of the source that are not given here.
Key:
[1] = Rodent Pharmacokinetics - Mouse PK; type: in vivo, C57 mice; settings: C57, plasma
Description: (§1) The pharmacokinetics of compounds are determined in male Sprague-Dawley rats or C57 mice. The rats are administered a single 1 mg/kg intravenous (IV) and 10 mg/kg oral gavage (PO) dose. The vehicles are 20% Captisol w/v in 25 mM NaPO4 buffer, pH8 and 1% hydroxyethylcellulose/0.25% polysorbate 80 and 0.05% antifoam 1510-US in distilled water for the intravenous and oral dose, respectively. Blood samples are collected at predose (PO only), 0.08 (IV only), 0.25, 0.5, 1, 2, 4, 8, 12 and 24 h after initiation of compound administration. Blood samples are centrifuged to obtain plasma. The plasma samples are analyzed by LC-MS/MS to determine compound concentrations.

Male C57B1/6 mice = assay: Diet-Induced Liver Inflammation and Fibrosis; type: in vivo; settings: for Peri-sinusoidal Fibrosis Score: vehicle 1.37; for Inflammation Score: vehicle 2.7
Description: Diet-Induced Liver Inflammation and Fibrosis
Male C57B1/6 mice (7-8 weeks old) are given free access to food and water. Mice are fed with high fat, high sucrose and high cholesterol food for 196 days. Then animals will be administrated orally with vehicle or test compounds once daily for 77 days at a volume of 5 ml/kg. Body weight and food intake will be measured twice a week, after two weeks, BW and FI will be measured once a week. At the end of study, animals will be euthanized by CO2 suffocation. Liver samples of the animals are collected and fixed in 10% NBF. Liver samples are prepared after 20 to 24 hours of fixation in 10% NBF and prepared into FFPE blocks. Slide sections of FFPE blocks are processed with H&E and Masson's Trichrome staining. Histopathology interpretation and results will be provided by qualified pathologists. The data are plotted using Graphpad prism and statistical differences between groups determined.

human LPAR3 = human LPAR3 (Homo sapiens (Human), UniProt Q9UBY5); assay: LPAR3 Calcium Flux Assay; type: cell-based; settings: U2OS cells overexpressing human LPAR3, LPA-stimulated calcium, FLIPR
Description: LPAR3 Calcium Flux Assays
(§2) A cDNA encoding the human LPAR3 receptor is synthesized and cloned into pDNA3 expression plasmid. The plasmid is transfected in U2OS cells using Lipofectamine 2000 (Invitrogen Corp., USA). Clones stably expressing human LPAR3 are selected using neomycin and identified as cells that show Ca-influx in response to LPA.
U2OS cells overexpressing human LPAR3 are seeded at 20,000-40,000 cells per well in a 96-well poly-D-lysine coated plate one day before the assay. Prior to the assay, the cells are washed once with assay buffer (HBSS containing 20 mM HEPES and 0.2% BSA) and then incubated in 50 μl of assay buffer for 60 minutes. Then 50 μl of a calcium indicator dye (Fluo-4 NW, Molecular Probes) are added to each well and incubation is continued for 30 minutes at 37° C. and then 30 minutes at room temperature. 50 μl of test compounds in 4% DMSO are added to the cells and incubation continued at room temperature for 40 minutes. Cells are stimulated by the addition of 50 μl of 128 nM LPA and intracellular calcium is measured using the FLIPR TETRA (Molecular Devices). IC50 values are determined using “Genedata Screener” analysis tool.

LPAR1 [2] = target: T1, LPAR1 (Homo sapiens (Human), UniProt Q92633); assay: LPAR1 Membrane Binding Assay; settings: membrane containing LPAR1, radio labeled ligand, SPA
Description: LPAR1 Membrane Binding Assay
The ability of a compound to inhibit binding of a ligand (1-(4′-(4-(((benzyloxy)carbonyl)amino)-3-methylisoxazol-5-yl)-[1,1′-biphenyl]-4-yl)cyclopropane-1-carboxylic acid) to LPAR1 is assessed via a membrane binding assay. Membrane containing LPAR1 was purchased from Cerep (Cat. No. 290312RB). Prior to the assay, membrane is thawed and homogenized for 15 seconds. 50 μl of test compounds and 50 μl of radio labeled ligand are added to the 96-well plates and then 50 of μl membrane (50-400 ug/ml) are added. Next, 50 μl of SPA PVT WGA beads are added (1-5 mg/ml) and the plates are sealed and incubated at room temperate for 5 minutes. Radio activity is measured by Beta Counter and IC50 values are determined using “Genedata Screener” analysis tool.
Target sequence in this assay (Q92633 whole entry, species assumed): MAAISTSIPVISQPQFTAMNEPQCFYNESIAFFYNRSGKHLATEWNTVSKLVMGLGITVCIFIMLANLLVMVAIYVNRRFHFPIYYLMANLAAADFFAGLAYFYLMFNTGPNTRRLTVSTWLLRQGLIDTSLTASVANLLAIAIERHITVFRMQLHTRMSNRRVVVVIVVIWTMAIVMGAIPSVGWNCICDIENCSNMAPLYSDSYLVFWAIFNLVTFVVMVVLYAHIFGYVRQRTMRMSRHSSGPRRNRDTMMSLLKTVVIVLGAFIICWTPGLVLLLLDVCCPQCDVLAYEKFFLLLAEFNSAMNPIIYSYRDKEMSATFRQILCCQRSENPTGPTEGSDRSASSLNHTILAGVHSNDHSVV

[3] = Rodent Pharmacokinetics - Rat PK; type: in vivo, male Sprague-Dawley rats; settings: male, Sprague-Dawley, plasma
Description: as §1

[4] = tested on: Human hepatic stellate cell line LX-2; assay: Calcium Influx of Human Hepatic Stellate Cells (LX-2); type: cell-based; settings: LX-2 cells, LPA-stimulated calcium influx
Description: Calcium Influx of Human Hepatic Stellate Cells (LX-2)
Human hepatic stellate cell line LX-2 is purchased from EMD Millpore. LX-2 cells are seeded at 20,000-40,000 cells per well in a 96-well poly-D-lysine coated plate one day before the assay. Prior to the assay, the cells are washed once with assay buffer (HBSS containing 20 mM HEPES and 0.2% BSA) and then incubated in 50 μl of assay buffer for 60 minutes. Then 50 μl of a calcium indicator dye (Fluo-4 NW, Molecular Probes) are added to each well and incubation is continued for 30 minutes at 37° C. and then 30 minutes at room temperature. 50 μl of test compounds in 4% DMSO are added to the cells and incubation is continued at room temperature for 40 minutes. Cells are stimulated by the addition of 50 μl of 128 nM LPA and intracellular calcium is measured using the FLIPR TETRA (Molecular Devices). IC50 values are determined using “Genedata Screener” analysis tool.

Male C57BL/6J mice = assay: Mouse Intravenous LPA-Induced Histamine and Eicosanoids Release; type: in vivo; settings: 10 mg/kg orally 2 hours before intravenous LPA; plasma
Description: Mouse Intravenous LPA-Induced Histamine and Eicosanoids Release
A mouse intravenous LPA-induced histamine and eicosanoids release model is utilized to determine the in vivo potency of the compounds of the present invention. Male C57BL/6J mice weighing 20-25 grams are given free access to standard mouse chow and water. LPA is dissolved in 0.1% fatty acid-free bovine serum albumin to generate solution at 2 mg/mL. Test compounds are formulated in 0.5% methyl cellulose plus 0.25% Tween 80 to generate required concentrations one day before the experiment and stored in a refrigerator until use. Animals are dosed orally with test compounds at 10 ml/kg 2 hours before the intravenous LPA dosing (300 ug per mouse) with 30 gauge needles through tail vain. Two hours after LPA dosing the animals are euthanized by CO2 suffocate. Blood will be collected by cardiac puncture. Blood samples are kept on ice for more than 5 minutes and centrifuged at 4000 rpm for 10 minutes at 4° C. to generate supernatant plasma. The plasma histamine, methylimidazol acetic acid and eicosanoids levels are measured by LC/MS.

LPAR1 [5] = target: T1, LPAR1; assay: LPAR1 Calcium Flux Assay; type: cell-based; settings: U937 cells overexpressing human LPAR1, LPA-stimulated calcium, FLIPR
Description: LPAR1 Calcium Flux Assays
as §2, with “LPAR1” for “LPAR3”, “U937” for “U2OS”, “puromycin” for “neomycin”
Target sequence in this assay (Q92633 whole entry): as the sequence (Q92633 whole entry, species assumed) above
U937 cells overexpressing human LPAR1 are seeded at 100,000 cells per well in a 96-well fibronectin (10 ug/ml) coated plate in 60 μl of assay buffer (HBSS containing 20 mM HEPES and 0.2% BSA) and then incubated for 60 minutes. Then 50 μl of a calcium indicator dye (Fluo-4 NW, Molecular Probes) are added to each well and incubation continued for 30 minutes at 37° C. and then 30 minutes at room temperature. 50 μl of test compounds in 4% DMSO are added to the cells and incubation continued at room temperature for 40 minutes. Cells are the stimulated by the addition of 50 μl of 128 nM LPA and intracellular calcium is measured using the FLIPR TETRA (Molecular Devices). IC50 values are determined using “Genedata Screener” analysis tool.

[6] = 10 mg/kg orally once daily for 77 days
[7] = 30 mg/kg orally once daily for 77 days

Chain of human LPAR3 (Q9UBY5 whole entry): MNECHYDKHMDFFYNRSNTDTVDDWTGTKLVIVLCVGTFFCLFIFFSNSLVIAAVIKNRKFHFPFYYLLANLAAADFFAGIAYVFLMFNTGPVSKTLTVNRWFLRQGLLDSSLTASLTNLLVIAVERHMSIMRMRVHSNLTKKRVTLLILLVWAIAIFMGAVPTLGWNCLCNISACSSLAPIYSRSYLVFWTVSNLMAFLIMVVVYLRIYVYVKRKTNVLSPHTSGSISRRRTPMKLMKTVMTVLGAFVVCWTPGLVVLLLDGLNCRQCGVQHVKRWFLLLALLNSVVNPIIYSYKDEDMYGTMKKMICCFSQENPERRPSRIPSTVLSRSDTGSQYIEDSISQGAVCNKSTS

AUC ([1]; 10 mg/kg, PO): 38.4 µM·h
clearance ([1]; intravenous): 3.5 mL/min/kg
Vd ([1]; intravenous, read-out: Vdss): 0.953 L/kg
bioavailability ([1]; oral, 10 mg/kg): 40.8%
pIC50 (human LPAR3): 5.70
pKi (LPAR1 [2]): 7.82
AUC ([3]; 10 mg/kg, PO): 80.1 µM·h
clearance ([3]; intravenous, 1 mg/kg): 4.23 mL/min/kg
Vd ([3]; intravenous, 1 mg/kg, read-out: Vdss): 0.799 L/kg
bioavailability ([3]; oral, 10 mg/kg): 93.6%
pIC50 [4]: 8.05
pIC50 (LPAR1 [5]): 7.69
Structure (SMILES): CC(C)c1cncc(Nc2c(-c3ccc(-c4ccc(C5(C(=O)O)CC5)cc4)cn3)cnn2C)n1 [Example 27, 1-[4-[6-[5-[(6-isopropylpyrazin-2-yl)amino]-1-methyl-pyrazol-4-yl]-3-pyridyl]phenyl]cyclopropanecarboxylic Acid]
Peri-sinusoidal Fibrosis Score (Male C57B1/6 mice; [6]): 1.30
Inflammation Score (Male C57B1/6 mice; [6]): 2.1*
Peri-sinusoidal Fibrosis Score (Male C57B1/6 mice; [7]): 1.07^$
Inflammation Score (Male C57B1/6 mice; [7]): 2.3^#
% of inhibition, histamine (Male C57BL/6J mice): 89.5 ± 1.6%
% of inhibition, methylimidazoleacetic acid (Male C57BL/6J mice): 100.8 ± 3.4%
